Test [1] deals with T1, F508delCFTR (Homo sapiens, UniProt P13569, DEL508-508).
T1 construct: expressed in transfected cells; host or cells: CFBE41o- human lung-derived epithelial cells (CFBE41o-F508delCFTR-HRP), doxycycline-inducible
Put plainly: Cell Surface Expression-Horse Radish Peroxidase (CSE-HRP) assay, test compound without co-corrector.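 For Emax: percent of on-plate 2 µM positive control corrector response over DMSO.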 The format is cell-based. To be noted: for Emax: maximum at any tested concentration, without co-corrector; for EC50: test compound without co-corrector. An outline of the steps:
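CFBE41o- cells expressing F508delCFTR with HRP in the fourth exofacial loop, induced with 0.5 μg/mL doxycycline for 72 h at 37° C, then exposed to compound alone for 18-24 h at 33° C, 8-point 3-fold series from 20 μM. Surface HRP read by luminol luminescence, normalized to positive corrector control versus DMSO; EC50 from variable-slope sigmoidal fit of three replicate plates.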

Test [2] deals with T1, F508delCFTR. Kind of test: Cell Surface Expression-Horse Radish Peroxidase (CSE-HRP) assay, test compound with co-corrector.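 For Maximum % activity (with co-corrector): percent of 2 µM positive control corrector over DMSO; co-corrector is that same compound.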 It counts as cell-based. Conditions: for Maximum % activity (with co-corrector): maximum at any tested concentration. The gist of the method:
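CFBE41o- cells expressing F508delCFTR with HRP in the fourth exofacial loop, induced with 0.5 μg/mL doxycycline for 72 h, then treated 18-24 h at 33° C. with compound (8 points, top 20 μM, 3-fold) plus 2 μM co-corrector. Surface HRP read by luminol luminescence; activity normalised to positive control, EC50 from variable-slope sigmoidal fit.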

Where [3] appears, read: normalized to positive control, with 2 μM co-corrector.
The mark [4] stands for this setting: normalized to on-plate positive control.
Where [5] appears, read: CSE-HRP assay, test compound with 2 μM co-corrector.
[6] abbreviates: normalized to on-plate positive control, with 2 μM co-corrector.

This note sets out measurements from US20180244611A1, “Modulators of the Cystic Fibrosis Transmembrane Conductance Regulator Protein and Methods of Use” (AbbVie S.à.r.l., priority 2017, published 2018).

T1 sequence (P13569 with tags, fused parts or gaps DEL508-508): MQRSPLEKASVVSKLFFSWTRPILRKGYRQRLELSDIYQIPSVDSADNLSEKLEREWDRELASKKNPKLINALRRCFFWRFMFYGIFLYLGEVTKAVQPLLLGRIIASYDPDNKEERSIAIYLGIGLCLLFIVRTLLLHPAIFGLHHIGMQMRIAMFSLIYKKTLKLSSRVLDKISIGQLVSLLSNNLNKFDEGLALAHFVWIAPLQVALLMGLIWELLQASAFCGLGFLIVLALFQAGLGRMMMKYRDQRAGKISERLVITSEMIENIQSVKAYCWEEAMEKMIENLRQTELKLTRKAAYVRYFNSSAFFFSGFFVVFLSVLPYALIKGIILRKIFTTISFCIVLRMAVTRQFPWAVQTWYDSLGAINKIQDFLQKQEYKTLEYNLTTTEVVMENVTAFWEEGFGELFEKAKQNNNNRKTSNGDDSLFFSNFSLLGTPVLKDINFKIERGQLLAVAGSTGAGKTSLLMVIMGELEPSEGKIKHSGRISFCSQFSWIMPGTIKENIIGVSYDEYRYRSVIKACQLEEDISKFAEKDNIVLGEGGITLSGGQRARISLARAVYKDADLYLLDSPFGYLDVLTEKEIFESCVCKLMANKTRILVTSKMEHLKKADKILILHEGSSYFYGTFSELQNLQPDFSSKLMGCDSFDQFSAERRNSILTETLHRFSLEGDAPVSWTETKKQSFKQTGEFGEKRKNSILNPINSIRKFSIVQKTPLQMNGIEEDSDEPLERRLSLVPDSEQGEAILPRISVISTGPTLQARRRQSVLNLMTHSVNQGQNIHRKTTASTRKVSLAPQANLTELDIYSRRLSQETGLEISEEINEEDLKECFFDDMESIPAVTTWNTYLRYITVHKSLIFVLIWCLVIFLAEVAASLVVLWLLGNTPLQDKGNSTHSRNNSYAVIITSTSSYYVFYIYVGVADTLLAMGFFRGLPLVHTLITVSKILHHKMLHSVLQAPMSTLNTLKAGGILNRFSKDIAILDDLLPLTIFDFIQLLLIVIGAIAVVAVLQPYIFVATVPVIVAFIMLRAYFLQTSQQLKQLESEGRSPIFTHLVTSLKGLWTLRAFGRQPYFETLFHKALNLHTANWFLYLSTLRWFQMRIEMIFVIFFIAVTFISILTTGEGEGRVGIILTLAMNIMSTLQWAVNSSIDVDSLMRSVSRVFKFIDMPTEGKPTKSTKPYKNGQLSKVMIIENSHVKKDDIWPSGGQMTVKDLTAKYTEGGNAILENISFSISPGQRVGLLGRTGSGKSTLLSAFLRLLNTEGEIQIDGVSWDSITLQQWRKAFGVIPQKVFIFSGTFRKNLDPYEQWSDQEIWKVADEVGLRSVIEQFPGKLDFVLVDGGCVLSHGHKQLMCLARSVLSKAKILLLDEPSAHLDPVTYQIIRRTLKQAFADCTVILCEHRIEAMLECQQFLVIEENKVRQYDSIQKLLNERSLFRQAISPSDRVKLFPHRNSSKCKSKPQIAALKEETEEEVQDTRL

As usually defined, the Emax is the size of the effect at its maximum, as opposed to the concentration needed. As usually defined, the EC50 is the concentration giving half of the maximal effect. High values mean a less potent agent, low ones a more potent agent. In turn, `CCCCCC(=O)c1ccc(S(=O)(=O)NC(=O)C2CCc3c(OC)cccc32)cc1` (stereo not drawn) [III-54] registered an Emax on F508delCFTR [1] (normalized to positive control) of less than 50%. Further, the EC50 at F508delCFTR [1] and at F508delCFTR [2] (with 2 μM co-corrector) was not below 10 µM each time. Besides, the “Maximum % activity (with co-corrector)” value at F508delCFTR [2] (setting [3]) is reported as “+ (<150)”.

`CCC1(C(=O)NS(=O)(=O)c2cc(C)ccc2C(C)C)CCc2c(Cl)cccc21` (stereo not drawn) [II-56] registered an Emax at F508delCFTR [1] (normalized to positive control) of less than 50%. For the same molecule, the EC50 on F508delCFTR [1] and on F508delCFTR [2] (with 2 μM co-corrector) was less than 3 µM each time. Moreover, the “Maximum % activity (with co-corrector)” value on F508delCFTR [2] (setting [3]) is “++ (≥150 and <350)”.

As to `Cc1ccccc1S(=O)(=O)NC(=O)C1(C)CCc2cccc(Cl)c21` (stereo not drawn) [II-19], the Emax on F508delCFTR [1] (normalized to positive control) fell in the range of 50 to 150%. Moreover, the EC50 on F508delCFTR [1] and on F508delCFTR [2] (with 2 μM co-corrector) was 3 to 10 µM each time. Also, the “Maximum % activity (with co-corrector)” value at F508delCFTR [2] (setting [3]) is “++ (≥150 and <350)”.

In the case of `CCC1(C(=O)NS(=O)(=O)c2cccnc2Cl)CCc2c(Cl)cccc21` (stereo not drawn) [III-132], the EC50 on F508delCFTR [1] (CSE-HRP assay) is not below 10 µM; at F508delCFTR [2] (setting [5]), 3 to 10 µM. The Emax at F508delCFTR [1] (setting [4]) is less than 50%. At F508delCFTR [2] (setting [6]), the “Maximum % activity (with co-corrector)” value was “++ (≥150 and <350)”.

`COc1ccc2c(c1)[C@@](C)(C(=O)NS(=O)(=O)c1cccc3ccccc13)CC2` [Example I-22, (1S)-6-methoxy-1-methyl-N-(naphthalene-1-sulfonyl)-2,3-dihydro-1H-indene-1-carboxamide] came in with an Emax at F508delCFTR [1] (normalized to positive control) not below 150%. Besides, the results for the EC50 at F508delCFTR [1] and at F508delCFTR [2] (with 2 μM co-corrector) were 3 to 10 µM and less than 3 µM, respectively. Further, the “Maximum % activity (with co-corrector)” value at F508delCFTR [2] (setting [3]) is given as “+++ (≥350)”.

Regarding `COc1ccc(C(C)(C)O)c2c1C(C(=O)NS(=O)(=O)c1cccc3ccccc13)CC2` (stereo not drawn) [Example I-125, 4-(2-hydroxypropan-2-yl)-7-methoxy-N-(naphthalene-1-sulfonyl)-2,3-dihydro-1H-indene-1-carboxamide], the Emax on F508delCFTR [1] (normalized to positive control) was in the range of 50 to 150%. Moreover, the EC50 at F508delCFTR [1] and on F508delCFTR [2] (with 2 μM co-corrector) was 3 to 10 µM in each case. Moreover, on F508delCFTR [2] (setting [3]), the “Maximum % activity (with co-corrector)” value is reported as “+++ (≥350)”.

With `Cc1ccccc1S(=O)(=O)NC(=O)C1CCc2c(-c3cccnc3C)cccc21` (stereo not drawn) [III-88], the maximal effect (Emax) on F508delCFTR [1] (normalized to positive control) was less than 50%. Further, the EC50 on F508delCFTR [1] and on F508delCFTR [2] (with 2 μM co-corrector) was not below 10 µM throughout. The “Maximum % activity (with co-corrector)” value on F508delCFTR [2] (setting [3]) was “+ (<150)”.

On to `COc1cccc2c1CC(C(=O)NS(=O)(=O)c1cccc3ccccc13)C2` (stereo not drawn) [II-48], for which, at F508delCFTR [1] (normalized to positive control), the Emax is 50 to 150%. The EC50 on F508delCFTR [1] and on F508delCFTR [2] (with 2 μM co-corrector) was 3 to 10 µM each time. For the same molecule, the “Maximum % activity (with co-corrector)” value on F508delCFTR [2] (setting [3]) is “+++ (≥350)”.

Turning to `CNC(=O)c1ccc(OC)c2c1CCC2C(=O)NS(=O)(=O)c1cccc2ccccc12` (stereo not drawn) [III-186], the concentration giving a half-maximal response (EC50) at F508delCFTR [1] (CSE-HRP assay) and on F508delCFTR [2] (setting [5]) was not below 10 µM in each case. Further, on F508delCFTR [1] (setting [4]), the Emax is less than 50%. Moreover, the “Maximum % activity (with co-corrector)” value at F508delCFTR [2] (setting [6]) is “+ (<150)”.

`O=C(NS(=O)(=O)c1cccc2ccccc12)C1CCc2ccccc21` (stereo not drawn) [II-68] showed an Emax on F508delCFTR [1] (normalized to positive control) of less than 50%. In addition, the EC50 at F508delCFTR [1] is 3 to 10 µM; on F508delCFTR [2] (with 2 μM co-corrector), less than 3 µM. The “Maximum % activity (with co-corrector)” value at F508delCFTR [2] (setting [3]) is “++ (≥150 and <350)”.

`O=C(NS(=O)(=O)c1cccc(Cl)c1)C1CCc2c(Cl)cccc21` (stereo not drawn) [II-26] had an Emax at F508delCFTR [1] (normalized to positive control) of less than 50%. For the same molecule, the EC50 at F508delCFTR [1] is not below 10 µM; at F508delCFTR [2] (with 2 μM co-corrector), 3 to 10 µM. For the same molecule, at F508delCFTR [2] (setting [3]), the “Maximum % activity (with co-corrector)” value was “++ (≥150 and <350)”.

As to `COCCN(C)CCC1(C(=O)NS(=O)(=O)c2cccc3ccccc23)CCc2c(Cl)cccc21` (stereo not drawn) [Example III-112, 4-chloro-1-{2-[(2-methoxyethyl)(methyl)amino]ethyl}-N-(naphthalene-1-sulfonyl)-2,3-dihydro-1H-indene-1-carboxamide], the EC50 at F508delCFTR [1] (CSE-HRP assay) and at F508delCFTR [2] (setting [5]) was 3 to 10 µM throughout. At F508delCFTR [1] (setting [4]), this molecule returned an Emax of less than 50%. Also, the “Maximum % activity (with co-corrector)” value on F508delCFTR [2] (setting [6]) was “++ (≥150 and <350)”.

In turn, `COc1ccc(Br)c2c1[C@@H](C(=O)NS(=O)(=O)c1cccc3ccccc13)CC2` [Example I-51, (1S)-4-bromo-7-methoxy-N-(naphthalene-1-sulfonyl)-2,3-dihydro-1H-indene-1-carboxamide] displayed an Emax at F508delCFTR [1] (normalized to positive control) of 50 to 150%. The concentration giving a half-maximal response (EC50) at F508delCFTR [1] and on F508delCFTR [2] (with 2 μM co-corrector) was 3 to 10 µM each time. Moreover, the “Maximum % activity (with co-corrector)” value on F508delCFTR [2] (setting [3]) was “++ (≥150 and <350)”.

With `Cc1ccccc1S(=O)(=O)NC(=O)C1CCc2c(-c3ccc(N4CCCCC4)nc3)cccc21` (stereo not drawn) [III-86], the Emax at F508delCFTR [1] (normalized to positive control) was in the range of 50 to 150%. Besides, the EC50 is 3 to 10 µM on F508delCFTR [1] and less than 3 µM at F508delCFTR [2] (with 2 μM co-corrector). Further, the “Maximum % activity (with co-corrector)” value at F508delCFTR [2] (setting [3]) was “++ (≥150 and <350)”.

`COc1ccc(Br)c2c1C(C(=O)NS(=O)(=O)c1cccc(N)n1)CC2` (stereo not drawn) [III-160]: the EC50 at F508delCFTR [1] (CSE-HRP assay) and at F508delCFTR [2] (setting [5]) was 3 to 10 µM in each case. The Emax at F508delCFTR [1] (setting [4]) fell in the range of 50 to 150%. For the same molecule, the “Maximum % activity (with co-corrector)” value on F508delCFTR [2] (setting [6]) was “+++ (≥350)”.
